Literature values in patent publication US8663696B2, “Film delivery system for tetrahydrolipstatin” (MonoSol Rx, LLC, priority 2007, dated 2014).

Experiments:
lipase = details: background statement on the drug
[1] = natural crystalline state

In the case of `CCCCCCCCCCC[C@@H](C[C@@H]1OC(=O)[C@H]1CCCCCC)OC(=O)[C@H](CC(C)C)NC=O` [Tetrahydrolipstatin, (2S,3S,5S)-5-[(S)-2-formamido-4-methyl-valeranyloxy]-2-hexyl-3-hexadecanoic acid lactone], the “absorption of dietary fat blocked” value (lipase) is given as “approximately 30%” and the water solubility [1] is given as “very water-insoluble”.
